As usually defined, the EC50 is the midpoint of the concentration-response curve. One may read the melting point as the temperature, or range, at which the solid turns liquid.

A value given as a limit tells only on which side of the number the result lay.

The target of one data set is recombinant human AMPK complex 1 (containing α1β1γ1) (Homo sapiens, UniProt Q13131+Q9Y478). In words: AMPKSAMSF (in vitro AMPK activation assay). Type of data set: biochemical. Particulars: recombinant human AMPK complex 1 (α1β1γ1). How it is done: The recombinant human AMPK complex 1 (containing α1β1γ1) was obtained from baculovirus expression system. Recombinant viruses were generated by cotransfection of AMPK/pBacPak9 clones with Baculogold baculovirus DNA (Pharmingen) in spodoptera frugiperda 21 cells according to the manufacturer's instructions. Each round of virus amplification was performed for 5 days in Grace's medium containing 10% serum. Virus that had been subjected to three rounds of amplification was used for all protein production procedures. To express the AMPK complex, sf21 cells were adapted to serum free medium (SF900 II, Invitrogen) by sequential dilution from serum containing stocks into SF900II medium and maintained in shaker flasks at 90 rpm at 27° C. The recombinant AMPK enzyme complex was produced by triple infection, one recombinant virus for each of the subunits, in sf21 cells under serum free conditions. Cells were infected in log phase, 1×10^6 cells/ml, at a multiplicity of infection of ˜5. Cells were harvested by centrifugation at 10,000×g for 15 minutes after 72 hours of infection with viruses. The insect cell pellet from 2 liters of culture was resuspended in 50 ml lysis buffer (20 mM Tris-HCl, 50 mM NaCl, 50 mM NaF, 30 mM Na PPi, 0.25 M sucrose, 10 mM ZnCl2, 2 mM DTT, 0.4 mg/ml digitonin) and subjected to two cycles of freeze-thaw lysis in a dry-ice ethanol bath. Insoluble material was removed by centrifugation at 10,000×g and the supernatant was fractionated with use of polyethylene glycol (PEG). The protein fraction precipitating between 2.5 and 6% PEG was used for further purification using a Blue-Sepharose step (Zhou et al, J. Clin Invest. 108, 1167-1174, 2001).
recombinant human AMPK complex 1 (containing α1β1γ1), sequence (Q13131 whole entry): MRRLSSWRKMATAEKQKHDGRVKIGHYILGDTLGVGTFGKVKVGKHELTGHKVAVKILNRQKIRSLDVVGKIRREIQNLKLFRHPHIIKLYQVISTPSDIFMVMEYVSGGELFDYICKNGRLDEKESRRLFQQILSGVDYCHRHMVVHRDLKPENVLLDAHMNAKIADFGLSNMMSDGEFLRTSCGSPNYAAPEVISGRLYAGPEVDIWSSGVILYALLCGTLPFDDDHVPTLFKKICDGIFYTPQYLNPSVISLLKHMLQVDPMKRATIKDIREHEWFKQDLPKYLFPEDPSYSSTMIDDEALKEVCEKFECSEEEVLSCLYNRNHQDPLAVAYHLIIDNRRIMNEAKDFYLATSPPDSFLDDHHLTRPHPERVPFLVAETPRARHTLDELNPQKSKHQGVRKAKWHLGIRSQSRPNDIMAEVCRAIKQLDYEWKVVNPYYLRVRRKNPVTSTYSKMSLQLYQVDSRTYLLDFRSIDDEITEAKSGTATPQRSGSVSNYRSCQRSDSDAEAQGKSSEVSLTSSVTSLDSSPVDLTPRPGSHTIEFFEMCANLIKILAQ
recombinant human AMPK complex 1 (containing α1β1γ1), sequence (Q9Y478 whole entry): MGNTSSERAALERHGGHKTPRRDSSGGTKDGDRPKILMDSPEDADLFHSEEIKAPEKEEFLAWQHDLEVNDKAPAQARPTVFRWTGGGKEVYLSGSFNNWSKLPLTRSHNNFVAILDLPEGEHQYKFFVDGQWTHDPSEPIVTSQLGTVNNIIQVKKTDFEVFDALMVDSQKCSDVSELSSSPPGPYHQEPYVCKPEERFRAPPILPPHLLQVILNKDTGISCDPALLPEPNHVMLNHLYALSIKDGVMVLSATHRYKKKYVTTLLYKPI
recombinant human AMPK complex 1 (containing α1β1γ1), sequence (P54619 whole entry partner): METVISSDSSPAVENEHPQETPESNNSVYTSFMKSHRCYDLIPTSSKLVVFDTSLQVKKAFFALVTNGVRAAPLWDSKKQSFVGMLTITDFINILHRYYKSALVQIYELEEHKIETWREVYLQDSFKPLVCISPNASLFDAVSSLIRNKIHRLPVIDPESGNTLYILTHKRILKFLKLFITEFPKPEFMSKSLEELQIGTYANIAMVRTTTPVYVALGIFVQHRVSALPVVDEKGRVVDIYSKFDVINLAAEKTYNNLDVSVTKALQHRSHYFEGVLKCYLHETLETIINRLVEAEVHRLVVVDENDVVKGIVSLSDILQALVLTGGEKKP
The total in vitro AMPK activation assay volume is 50 μl in a 96-well plate. The reaction mixture contained 100 μM ATP (0.5 μCi ^33P-ATP per reaction), and 50 μM SAMS (HMRSAMSGLHLVKRR) in a buffer (20 mM HEPES, pH 7.0, 5 mM MgCl2, 0.01% Brij35). The reaction was initiated with addition of the enzyme. After 30-minute incubation at 30° C., the reaction was stopped by addition of 80 μl 1% H3PO4. Aliquots (100 μl) were transferred to 96-well MultiScreen plates (MAPHNOB50; Millipore Corp., Bedford, Mass., USA). The plate was washed three times with 1% H3PO4 followed by detection in a Top-count. The counts per minute from the basal activity (the reaction without activator) was subtracted from each well and the data were expressed as % maximum AMP activation followed by EC50 calculation.
As to `O=P(O)(O)CSc1nc2cc(C#Cc3ccc(F)cc3F)c(Cl)cc2[nH]1` [Example 8], the EC50 worked out at 184 nM.

Consider `O=P(O)(O)CSc1nc2cc(-c3ccc(-c4cccnc4)cc3)c(Cl)cc2[nH]1` [Example 22, (5-chloro-6-(4-(pyridin-3-yl)phenyl)-1H-benzo[d]imidazol-2-ylthio)methyl-phosphonic acid], for which the EC50 turned out to be 82 nM.

In the case of `O=P(O)(O)CSc1nc2cc(-c3ccc4[nH]ccc4c3)c(Cl)cc2[nH]1` [Example 27], the EC50 stood at 233 nM.

Regarding `Cn1ccc2cc(-c3cc4nc(SCP(=O)(O)O)[nH]c4cc3Cl)ccc21` [Example 28], the EC50 was 58 nM.

Regarding `O=P(O)(O)CSc1nc2cc(-c3ccc(-c4ccccc4)cc3)c(Cl)cc2[nH]1` [Example 29], the EC50 came to 137 nM.

Still in this data set, the particulars now being: recombinant human AMPK complex 1 (α1β1γ1); basal activity subtracted; read-out: % Maximum AMP Activation of human AMPK Complex 1.
On to `O=P(O)(O)CSc1nc2cc(Cl)c(C#Cc3ccccc3)cc2[nH]1` [Example 1, (5-Chloro-6-phenylethynyl-1H-benzoimidazol-2-ylsulfanylmethyl)-phosphonic acid], for which the Emax was > 60%.

For `O=P(O)(O)CSc1nc2cc(C#Cc3ccc(F)cc3)c(Cl)cc2[nH]1` [Example 2], the Emax is > 60%.

On to `O=P(O)(O)CSc1nc2cc(C#Cc3ccc(C(F)(F)F)cc3)c(Cl)cc2[nH]1` [Example 3], for which the Emax was > 60%.

As to `O=P(O)(O)CSc1nc2cc(C#Cc3cccc(F)c3)c(Cl)cc2[nH]1` [Example 4], the Emax is > 60%.

Turning to `O=P(O)(O)CSc1nc2cc(C#Cc3ccccn3)c(Cl)cc2[nH]1` [Example 5], the Emax is > 60%.

Take `O=P(O)(O)CSc1nc2cc(C#Cc3ccccc3F)c(Cl)cc2[nH]1` [Example 6]: the Emax is > 60%.

For `O=P(O)(O)CSc1nc2cc(C#Cc3ccc(CO)cc3)c(Cl)cc2[nH]1` [Example 7], the Emax is > 60%.

In the case of `O=P(O)(O)CSc1nc2cc(C#Cc3ccccc3O)c(Cl)cc2[nH]1` [Example 9], the Emax is > 60%.

As for `O=P(O)(O)CSc1nc2cc(C#Cc3cccnc3)c(Cl)cc2[nH]1` [Example 10], the Emax is > 60%.

On to `O=P(O)(O)CSc1nc2cc(C#Cc3ccc(Cl)cc3)c(Cl)cc2[nH]1` [Example 11], for which the Emax is > 60%.

As to `Cc1cc(-c2cc3nc(SCP(=O)(O)O)[nH]c3cc2Cl)ccc1Cl` [Example 12, [6-Chloro-5-(4-chloro-3-methyl-phenyl)-1H-benzoimidazol-2ylsulfanylmethyl]-phosphonic acid], the Emax was > 60%.

As for `CCOP(=O)(CSc1nc2cc(-c3ccc(Br)cc3)c(Cl)cc2[nH]1)OCC` [Example 13], the Emax is > 60%.

`CN(C)C(=O)c1ccc(-c2cc3nc(SCP(=O)(O)O)[nH]c3cc2Cl)cc1` [Example 14, [6-Chloro-5-(4-dimethylcarbamoyl-phenyl)-1H-benzoimidazol-2-ylsulfanylmethyl]-phosphonic acid]: the Emax is > 60%.

In the case of `O=P(O)(O)CSc1nc2cc(-c3ccc(Cl)c(F)c3)c(Cl)cc2[nH]1` [Example 15, [6-Chloro-5-(4-chloro-3-fluoro-phenyl)-1H-benzoimidazol-2-ylsulfanylmethyl]phosphonic acid], the Emax is > 60%.

For the compound `O=P(O)(O)CSc1nc2cc(-c3ccc(Cl)c(Cl)c3)c(Cl)cc2[nH]1` [Example 16, [6-Chloro-5-(3,4-dichloro-phenyl)-1H-benzoimidazol-2-ylsulfanylmethyl]-phosphonic acid], the Emax was > 60%.

In the case of `CSc1ccc(-c2cc3nc(SCP(=O)(O)O)[nH]c3cc2Cl)cc1` [Example 17, [6-Chloro-5-(4-methylsulfanyl-phenyl)-1H-benzoimidazol-2-ylsulfanylmethyl]-phosphonic acid], the Emax is > 60%.

Take `O=C(NC1CC1)c1cc(-c2cc3nc(SCP(=O)(O)O)[nH]c3cc2Cl)ccc1Cl` [Example 18, [6-Chloro-5-(4-chloro-3-cyclopropylcarbamoyl-phenyl)-1H-benzoimidazol-2-ylsulfanylmethyl]-phosohonic acid]: the Emax was > 60%.

As for `O=P(O)(O)CSc1nc2cc(-c3ccc(N4CCOCC4)cc3)c(Cl)cc2[nH]1` [Example 20, (5-chloro-6-(4-morpholinophenyl)-1H-benzo[d]imidazol-2-ylthio)methylphosphonic acid], the Emax was > 60%.

`COc1ccc(-c2ccc(-c3cc4nc(SCP(=O)(O)O)[nH]c4cc3Cl)cc2)cn1` [Example 21, (5-chloro-6-(4-(6-methoxypyridin-3-yl)phenyl)-1H-benzo[d]imidazol-2-ylthio)methylphosphonic acid]: the Emax was > 60%.

Regarding `CC(C)Oc1ccc(-c2ccc(-c3cc4nc(SCP(=O)(O)O)[nH]c4cc3Cl)cc2)cc1` [Example 23, (5-chloro-6-(4′-isopropoxy-biphenyl-4-yl)-1H-benzo[d]imidazol-2-ylthio)methylphosphonic acid], the Emax was > 60%.

Turning to `Cc1cncc(-c2ccc(-c3cc4nc(SCP(=O)(O)O)[nH]c4cc3Cl)cc2)c1` [Example 24, (5-chloro-6-[4-(5-methyl-pyridin-3-yl)-phenyl]-1H-benzo[d]imidazol-2-ylthio)methylphosphonic acid], the Emax was > 60%.

With `O=P(O)(O)CCCc1nc2cc(-c3ccc(-c4ccccc4)cc3)c(Cl)cc2[nH]1` [Example 25, [3-(5-Biphenyl-4-yl-6-chloro-1H-benzoimidazol-2-yl)-propyl]-phosphonic acid], the Emax was > 60%.

Consider `O=P(O)(O)CCc1nc2cc(-c3ccc(-c4ccccc4)cc3)c(Cl)cc2[nH]1` [Example 26, [2-(Biphenyl-4-yl-6-chloro-1H-benzoimidazol-2-yl)-ethyl]-phosphonic acid], for which the Emax is > 60%.

`O=P1(CSc2nc3cc(-c4ccc(-c5ccccc5)cc4)c(Cl)cc3[nH]2)OCCC(c2cccc(Cl)c2)O1` (stereo not shown) [Example 30, 5-Biphenyl-4-yl-6-chloro-2-[4-(3-chloro-phenyl)-2-oxo-2lambda*5*-[1,3,2]-dioxaphosphinan-2-ylmethylsulfanyl]-1H-benzoimidazole]: the Emax is > 60%.

For the compound `COc1ccc(COP(=O)(O)CSc2nc3cc(-c4ccc(-c5ccccc5)cc4)c(Cl)cc3[nH]2)cc1F` [Example 31, (5-Biphenyl-4-yl-6-chloro-1H-benzoimidazol-2-ylsulfanylmethyl)-phosphonic acid mono-(3-fluoro-4-methoxy-benzyl)ester], the Emax is > 60%.

On to `CCC(=O)SCCOP(=O)(O)CSc1nc2cc(-c3ccc(-c4ccccc4)cc3)c(Cl)cc2[nH]1` [Example 32, Thiopropionic acid S-{2-[(5-biphenyl-4-yl-6-chloro-1H-benzoimidazol-2-ylsulfanylmethyl)-hydroxy-phosphinoyloxy]-ethyl}ester], for which the Emax is > 60%.

With `CCC(=O)SCCOP(=O)(CSc1nc2cc(-c3ccc(-c4ccccc4)cc3)c(Cl)cc2[nH]1)OCCSC(=O)CC` [Example 33, Thiopropionic acid S-{2-[(5-biphenyl-4-yl-6-chloro-1H-benzoimidazol-2-ylsulfanylmethyl)-(2-propionylsulfanyl-ethoxy)-phosphinoyloxy]-ethyl}ester], the Emax is > 60%.

For `O=[P@]1(CSc2nc3cc(-c4ccc(-c5ccccc5)cc4)c(Cl)cc3[nH]2)OCC[C@@H](c2ccncc2)O1` [Example 34, 5-Biphenyl-4-yl-6-chloro-2-(cis{5[1-yl-(4-pyridyl)]}-1-phosphono-2,6-dioxophosphinan-2-ylmethylsulfanyl)-1H-benzoimidazole], the Emax was > 60%.

As to `O=[P@@]1(CSc2nc3cc(-c4ccc(-c5ccccc5)cc4)c(Cl)cc3[nH]2)OCC[C@@H](c2ccncc2)O1` [Example 35, 5-Biphenyl-4-yl-6-chloro-2-(trans{5[1-yl-(4-pyridyl)]}-1-phosphono-2,6-dioxophosphinan-2-ylmethylsulfanyl)-1H-benzoimidazole], the Emax is > 60%.

As to `CC(C)(C)C(=O)OCOP(=O)(CSc1nc2cc(-c3ccc(-c4ccccc4)cc3)c(Cl)cc2n1COC(=O)C(C)(C)C)OCOC(=O)C(C)(C)C` [Example 36, 2,2-Dimethyl-propionic acid[5-biphenyl-4-yl-6-chloro-1-(2,2-dimethylpropionyl-oxymethyl)-1H-benzoimidazol-2-ylsulfanylmethyl]-(2,2-dimethyl-propionyl-oxymethoxy)-phosohinoyloxymethyl ester], the Emax was > 60%.

System in another data set: not given
Assay: not given
Conditions: not given
Turning to `O=P(O)(O)CSc1nc2cc(Cl)c(C#Cc3ccccc3)cc2[nH]1` [Example 1, (5-Chloro-6-phenylethynyl-1H-benzoimidazol-2-ylsulfanylmethyl)-phosphonic acid], the melting point fell in the range of 210 to 215 °C.

`CC(C)(C)C(=O)OCOP(=O)(CSc1nc2cc(-c3ccc(-c4ccccc4)cc3)c(Cl)cc2n1COC(=O)C(C)(C)C)OCOC(=O)C(C)(C)C` [Example 36, 2,2-Dimethyl-propionic acid[5-biphenyl-4-yl-6-chloro-1-(2,2-dimethylpropionyl-oxymethyl)-1H-benzoimidazol-2-ylsulfanylmethyl]-(2,2-dimethyl-propionyl-oxymethoxy)-phosohinoyloxymethyl ester] gave a melting point of 210 to 215 °C.

The values above are taken from patent publication US8329914B2, “Cyclic benzimidazole derivatives useful as anti-diabetic agents” (Merck Sharp & Dohme Corp, priority 2008, dated 2012).
